# Data from patent publication US20150224089A1, “COMBINATIONS OF IKKi/TBK1 INHIBITORS WITH BETA ADRENERGIC AGONISTS OR SYMPATHETIC NERVOUS SYSTEM ACTIVATORS” (THE REGENTS OF THE UNIVERSITY OF MICHIGAN, priority 2014, published 2015).
# Entries after “also recorded” stand apart in the source; their conditions may differ.
# Tests used:
# 3T3-L1 adipocytes [1] = assay: Immunoblots of β-adrenergic/PKA signaling (HSL, perilipin, PKA substrate, p38 phosphorylation) in 3T3-L1 adipocytes; format: cell-based
# Experimental: (A) Glycerol release from 3T3-L1 adipocytes treated with or without different concentrations of TNFα as indicated for 24 hr followed by treatment with or without 10 μM ISO or 50 μM FSK. (B) cAMP levels from 3T3-L1 adipocytes treated with or without 100 ng/ml TNFα for 24 hr followed by treatment with or without 10 μM ISO or 50 μM FSK in the presence or absence of pretreatment of 50 μM Amlexanox (Am). (C) cAMP levels from 3T3-L1 adipocytes treated with or without 100 ng/ml TNFα for 24 hr followed by treatment with or without 50 μM FSK in the presence or absence of pretreatment of 1 μM CAY10576 (CAY). (D) Immunoblots of whole cell lysates from 3T3-L1 adipocytes treated with or without different concentrations of TNFα as same as FIG. 2A for 24 hr followed by treatment with or without 10 μM ISO or 50 μM FSK. […] Arrow indicates CGI-58. (E) Immunoblots of whole cell lysates from 3T3-L1 adipocytes treated with or without 50 ng/ml TNFα or 100 μg/ml poly (I:C) for 24 hr followed by treatment with or without 10 μM ISO for 15 min in the presence or absence of pretreatment with increasing concentrations (0, 10, 50, and 200 μM) of amlexanox for 30 min.
# Experiments were conducted during development of embodiments of the present invention to determine whether the repression of β-adrenergic sensitivity produced by longer-term treatment with TNFα is due to increased activity of the noncanonical IKKs.
# 3T3-L1 adipocytes [2] = assay: cAMP levels in 3T3-L1 adipocytes; format: cell-based
# Experimental: (A) Glycerol release from 3T3-L1 adipocytes treated with or without different concentrations of TNFα as indicated for 24 hr followed by treatment with or without 10 μM ISO or 50 μM FSK. (B) cAMP levels from 3T3-L1 adipocytes treated with or without 100 ng/ml TNFα for 24 hr followed by treatment with or without 10 μM ISO or 50 μM FSK in the presence or absence of pretreatment of 50 μM Amlexanox (Am). (C) cAMP levels from 3T3-L1 adipocytes treated with or without 100 ng/ml TNFα for 24 hr followed by treatment with or without 50 μM FSK in the presence or absence of pretreatment of 1 μM CAY10576 (CAY). (D) Immunoblots of whole cell lysates from 3T3-L1 adipocytes treated with or without different concentrations of TNFα as same as FIG. 2A for 24 hr followed by treatment with or without 10 μM ISO or 50 μM FSK. Results were replicated in multiple experiments. ‘[’ indicates total HSL. ‘n.s.’ represents non-specific band. Arrow indicates CGI-58. (E) Immunoblots of whole cell lysates from 3T3-L1 adipocytes treated with or without 50 ng/ml TNFα or 100 μg/ml poly (I:C) for 24 hr followed by treatment with or without 10 μM ISO for 15 min in the presence or absence of pretreatment with increasing concentrations (0, 10, 50, and 200 μM) of amlexanox for 30 min.
# (A) cAMP levels from 3T3-L1 adipocytes expressing empty vector, Flag-IKKε, or Flag-TBK1 treated with or without 50 μM FSK, 250 μM IBMX, or together for 15 min. (B) cAMP levels from 3T3-L1 adipocytes expressing empty vector, Flag-IKKε, or Flag-TBK1 treated with or without 10 μM ISO or 50 μM FSK together with or without 10 μM Zardaverine (Zarda) for 15 min. (C) 32P phospho-image of in vitro kinase reaction using either immunoprecipitated HA-PDE3B from HEK293T cells or 1 μg MBP (myelin basic protein) as a substrate with recombinant kinases as indicated. (D) Immunoblots of immunoprecipitation with anti-HA antibodies followed by treatment with or without CIP (top panel) and whole cell lysates (bottom panel) from Cos-1 cells co-expressing HA-PDE3B with Flag-IKKε/TBK1 or Flag-IKKε/TBK1 K38A. D.E. stands for dark exposure and L.E. stands for light exposure. (E) Immunoblots of GST-14-3-3 pulldown from HEK293T cells co-expressing HA-PDE3B with Flag-TBK1 or Flag-TBK1 K38A.
# Obesity is accompanied by infiltration of proinflammatory macrophages into adipose tissue; these cells secrete inflammatory cytokines, such as TNFα, which generate insulin resistance by stimulating catabolic pathways (Hotamisligil, 2006; Lumeng et al., 2007; Ye and Keller, 2010; Ouchi et al., 2011; herein incorporated by reference in their entireties). Although TNFα is known to increase lipolysis in adipocytes (Zhang et al., 2002; Souza et al., 2003; Green et al., 2004; Plomgaard et al., 2008; herein incorporated by reference in their entireties), there is also evidence of a counterinflammatory response in obesity that may serve to repress energy expenditure (Gregor and Hotamisligil, 2011; Saltiel, 2012; Calay and Hotamisligil, 2013; Reilly et al., 2013; herein incorporated by reference in their entireties). Experiments were conducted during development of embodiments of the present invention using TNFα to model the inflammatory milieu of obese adipose tissue in cell culture to determine whether the cytokine might also regulate β-adrenergic signaling in this context. While short-term treatment with TNFα augmented the increase in cAMP produced by forskolin treatment, this effect declined after 12 hr. […] Thus, the catabolic effects of the proinflammatory cytokine TNFα in adipocytes are transient and followed by an inhibitory phase.
# Treatment of 3T3-L1 adipocytes with TNFα for 24 hr induced the expression of IKKε and increased TBK1 phosphorylation at the active site in a manner that was dependent on the activity of IKKβ and the NFκB pathway (Reilly et al., 2013; herein incorporated by reference in its entirety). […]
Compound,"effect on TNFα inhibition of isoproterenol-stimulated β-adrenergic signaling (phospho-PKA substrate, phospho-HSL, phospho-perilipin) (3T3-L1 adipocytes [1]; amlexanox pretreatment 0, 10, 50, 200 μM for 30 min, 50 ng/ml TNFα 24 hr, 10 μM ISO 15 min)","phosphorylation of p38 in response to isoproterenol (3T3-L1 adipocytes [1]; amlexanox pretreatment 0, 10, 50, 200 μM, dose-dependent)","effect on Poly (I:C) inhibition of sensitivity to isoproterenol stimulation (3T3-L1 adipocytes [1]; amlexanox pretreatment, 100 μg/ml poly (I:C) 24 hr, less than with TNFα)","rescue of TNFα-decreased isoproterenol- and forskolin-stimulated cAMP production (3T3-L1 adipocytes [2]; preincubation with 50 μM amlexanox, 100 ng/ml TNFα 24 hr, 10 μM ISO or 50 μM FSK)","isoproterenol-stimulated β-adrenergic signaling (phosphorylation of HSL, perilipin, PKA substrate motif proteins) (3T3-L1 adipocytes [1]; TNFα for 24 hr, 10 μM ISO)","isoproterenol- and forskolin-stimulated cAMP production (3T3-L1 adipocytes [2]; TNFα for 24 hr (100 ng/ml), 10 μM ISO or 50 μM FSK)",increase in cAMP produced by forskolin treatment (3T3-L1 adipocytes [2]; short-term treatment with TNFα)
"CC(C)c1ccc2oc3nc(N)c(C(=O)O)cc3c(=O)c2c1 [amlexanox, 2-amino-7-isopropyl-1-azaxanthone-3-carboxylic acid; 2-amino-7-isopropyl-5-oxo-5H-chromeno[2,3-b]pyridine-3-carboxylic acid]",blocked the inhibitory effect of TNFα,dramatically augmented,partially restored,largely rescued,–,–,–
TNFα,–,–,–,–,decreased,inhibited the production of the second messenger; also recorded: decreased isoproterenol- and forskolin-stimulated cAMP production,augmented
